From US12564622B2, “Preventing cytokine release syndrome” (priority 2017, dated 2026) come the findings set out here.

Structures are written as SMILES. Where “and” joins values, the source holds several entries; their conditions need not be identical. Equal entries are not always repeated. Entries after “also recorded” stand apart in the source; their conditions may differ.

Assay [1] relates to C. novyi-NT therapy-induced toxicity in mice bearing large subcutaneous CT26 tumors. Nature of the assay: C. novyi-NT therapy of large subcutaneous CT26 tumors (therapy-induced toxicity). It is filed as in vivo, mouse (BALB/c). Conditions: for mice surviving: CT26 tumor-bearing BALB/c mice, 12×10^6 spores intratumorally, ANP (osmotic pump 12 μg/day) or metyrosine (IP pre-treatment) given with parental C. novyi-NT. The protocol: ANP concentrations in the supernatant of ANP-C. novyi-NT culture and in mouse plasma were measured by an Elisa kit from Ray Biotech (EIAR-ANP-1) that recognizes both human and mouse ANP. ANP in the supernatant of ANP-C. novyi-NT culture were shown biological activities as described elsewhere (Lofton et al., 1990 Biochem. Biophys. Res. Comm., 172:793-9). Briefly, bacterial supernatants were applied to cultured bovine aortic endothelial cells (BAOEC, Cell Applications Inc.) for 3 minutes. cGMP concentrations were then measured in BAOEC lysates by the Direct cGMP Elisa Kit from Enzo following the manufacture's instruction.
The colon cancer cell line CT26 was injected subcutaneously into the right flank of six to eight week old female Balb/C mice as described elsewhere (Qiao et al., 2011 Oncotarget, 2:59-68). Tumor sizes were measured with a caliper and calculated as ½*L*W*H as described elsewhere (Tomayko et al., 1989 Can. Chemother. Pharmacol., 24:148-54). When tumors reached 600-900 mm^3 after about two weeks, 12×10^6 spores of C. novyi-NT or ANP-C. novyi-NT at 3×10^6/μl were injected intratumorally into 4 central parts of the tumor with a 32 G Hamilton syringe needle. The bacteria typical germinated in the tumors within 24 hours, turning them necrotic. Hydration of the mice was supported by daily subcutaneous injections of […] saline. Human ANP (Sigma) was dissolved in saline, loaded in mini-osmotic pumps (ALZET) with a release rate of 12 μg/day and implanted subcutaneously in the back of mice 12 hours before the spore injection. Pumps loaded with saline served as controls. Metyrosine was dissolved in PBS and injected IP at 60 mg/kg/day for three days before the C. novyi injection to deplete catecholamines in storage. Two hours after the spore injection, 60 mg/kg of metyrosine was injected intraperitoneally (IP). For each of the next three days, IP injections of metyrosine at 30 mg/kg were administered. Control groups were injected with PBS at the same time points.
Blood samples were collected into tubes containing 5 mM EDTA and 4 mM sodium metabisulfite after puncturing the facial vein or (terminally) by cardiac puncture. Subsequently, the samples were centrifuged and the plasmas were stored at −80° C. prior to analysis. Catecholamines (dopamine, norepinephrine and epinephrine) were measured using the 3-CAT Research ELISA kit from Labor Diagnostika Nord GmbH/Rocky Mountain Diagnostics. Cytokines were measured using Luminex assays based on Millipore Mouse and Human Cytokine/Chemokine panels.
ANP concentrations in the supernatant of ANP-C. novyi-642 NT culture and in mouse plasma were measured with an Elisa kit from Ray Biotech (EIAR-ANP-1) that recognizes both human and mouse ANP. […] Briefly, bacterial supernatants were applied to cultured bovine aortic endothelial cells (BAOEC, Cell Applications Inc.) for 3 minutes. cGMP concentrations were then measured in BAOEC lysates by the Direct cGMP Elisa Kit from Enzo following the manufacture's instruction.
The colon cancer cell line CT26 was injected subcutaneously into the right flank of six to eight weeks old female Balb/C mice as described elsewhere (see, e.g., Qiao et al. 2011 Oncotarget 2:59-68). Tumor sizes were measured with a caliper and calculated as ½*L*W*H as described elsewhere (see, e.g., Tomayko et al. 1989 Cancer Chemother Pharmacol 24:148-154). When tumors reached 600-900 mm^3 after about two weeks, 12×10^6 spores of C. novyi-NT or ANP-C. novyi-NT at 3×10^6/μl were injected intratumorally into 4 central parts of the tumor with a 32 G Hamilton syringe needle. The bacteria typical germinated in the tumors within 24 hours, turning them necrotic. Hydration of the mice was supported by daily subcutaneous injections of 500 μl saline. Human ANP (Sigma) was dissolved in saline, loaded in mini-osmotic pumps (ALZET) with a release rate of 12 μg/day and implanted subcutaneously in the back of mice 12 hours before the spore injection. Pumps loaded with saline served as controls. […]

Assay [2] has as its system Raji-bearing NSGS mice with high tumour burden treated with hCART19. Nature of the assay: hCART19 treatment of Raji-bearing NSGS mice, high tumour burden. It is filed as in vivo, mouse (NSGS). The text has this:
Six to eight-week old female NSG-SGM3 mice (NOD.Cg-Prkdcscid Il2rgtm1Wjl Tg(CMVIL3,CSF2,KITLG)1Eav/MloySzJ, Stock #013062) were purchased from the Jackson Laboratory. Raji cells were transfected with a luciferase construct via lentivirus to create Raji-luc cells as described elsewhere (Bai et al., 2015 Neuro Oncol., 17:545). Human CD19scFv-CD28-4-1BB-CD3ζ CART cells (PM-CAR1003, CART19) from Promab Biotechnologies were maintained for less than 7 days in AIM-V medium (GIBCO) supplemented with 300 IU/ml of hIL2 (Peprotech), 5% FBS and antibiotics. One day before the injection of Raji cells, mice were irradiated at a dose of 2 Gy in a CIXD Xstahl device. One million Raji-luc cells were injected IV via tail vein on day zero. Six days later, tumor loads were assessed using a Xenogen instrument and 15×10^6 CART19 cells were injected IV. Metyrosine was injected IP at 60 mg/kg/day for three days before the CART19 injection. On the day of CART19 injection, a fourth dose of 60 mg/kg was given IP and the mice were subsequently injected four more times at daily intervals at 30 mg/kg.
Six to eight weeks old female NSG-SGM3 (NSGS) mice (NOD.Cg-Prkdcscid Il2rgtm1WjlTg (CMV-IL3, CSF2, KITLG) 1Eav/MloySzJ, Stock #013062) were purchased from the Jackson Laboratory. Raji cells were transfected with a luciferase construct via lentivirus to create Raji-luc cells. NSGS is a triple transgenic strain expressing human IL3, GM-CSF and SCF combine the features of the highly immunodeficient NOD scid gamma (NSG) mouse. One day before the injection of Raji cells, mice were irradiated at a dose of 2 Gy in a CIXD Xstahl device. In high tumor burden experiments in FIG. 5, 10^6 Raji-luc cells were injected IV via tail vein. Six days later, tumor loads were assessed using a Xenogen instrument and 15×10^6 hCART19 cells or untransduced T-cells were injected IV. In low tumor burden experiments in FIG. 6, 2×10^5 Raji-luc cells were injected IV via tail vein. Four days later, tumor loads were assessed using a Xenogen instrument and 15×10^6 hCART19 cells were injected IV. Metyrosine was injected IP at 60 mg/kg/day for three days before the hCART19 injection. On the day of CART19 injection, a fourth dose of 60 mg/kg was given IP and the mice were subsequently injected four more times at daily intervals at 30 mg/kg.

[3] abbreviates: plasma, 36 hours after spore injection, versus parental C. novyi-NT alone.
The mark [4] stands for this setting: 24 and 72 hours after hCART19, metyrosine pre-treatment.

Turning to `CC[C@H](C)[C@@H]1NC(=O)[C@H](CCCNC(=N)N)NC(=O)[C@H](CC(=O)O)NC(=O)[C@H](CCSC)NC(=O)[C@H](CCCNC(=N)N)NC(=O)CNC(=O)CNC(=O)[C@H](Cc2ccccc2)NC(=O)[C@@H](NC(=O)[C@H](CO)NC(=O)[C@H](CO)NC(=O)[C@H](CCCNC(=N)N)NC(=O)[C@H](CCCNC(=N)N)NC(=O)[C@H](CC(C)C)NC(=O)[C@@H](N)CO)CSSC[C@@H](C(=O)N[C@@H](CC(N)=O)C(=O)N[C@@H](CO)C(=O)N[C@@H](Cc2ccccc2)C(=O)N[C@@H](CCCNC(=N)N)C(=O)N[C@@H](Cc2ccc(O)cc2)C(=O)O)NC(=O)CNC(=O)[C@H](CC(C)C)NC(=O)CNC(=O)[C@H](CO)NC(=O)[C@H](CCC(N)=O)NC(=O)[C@H](C)NC(=O)CNC1=O` [ANP, atrial natriuretic peptide], the mice surviving in assay [1] is ~75% and ~73%. The “robust but not curative response, of surviving mice” value in assay [1] (CT26 tumors, surviving mice) is 20% and 23%. Further, the “tissue damage and leukocyte/myeloid cell infiltration in lungs, liver, spleen” value in assay [1] (histology, versus parental C. novyi-NT) is “major reductions”. Besides, the circulating catecholamines result in assay [1] (setting [3]) is “major reductions”.
`C[C@](N)(Cc1ccc(O)cc1)C(=O)O` [metyrosine, α-methyl-tyrosine]: in assay [1], the mice surviving amounted to 85%. Moreover, the circulating catecholamines entry in assay [1] (setting [3]) is “substantially reduced”; in assay [2] (setting [4]) it was “significantly reduced; also recorded: significantly lower”; in assay [2] (24 and 72 hours after hCART19, metyrosine pre-treatment, listed as Metyrosine) it was “able to block that effect”. In addition, the “circulating inflammatory cytokines and chemokines” value in assay [1] (setting [3]) is recorded as “substantially reduced”. Also, in assay [2] (setting [4]), the “circulating human and mouse cytokines” value is reported as “significantly reduced; also recorded: significantly lowered”. The final outcome in assay [2] (high tumour burden, hCART19 plus metyrosine) is given as “eventually died with progressive lymphoma”. Further, the plasma dopamine result in assay [2] (two time points after CART19 treatment) is given as “able to reduce dopamine production”.
